Laboratory results: patent US20080214656A1, “Compounds With Diphenoyl-Structure For the Treatment of Immune Diseases” (Neurogenex Co., Ltd., priority 2004, published 2008)

Experiments:
Foxp3 = Foxp3 expression in stimulated CD4+ T cells by real-time RT-PCR; assay type: cell-based, mice; conditions: approximately 50 μM; mouse spleen CD4+ T cells stimulated by anti-CD3 and anti-CD28
Procedure: CD4^+ T cells were obtained from the spleens of mice, and each group of the CD4^+ Tcells with a concentration of approximately 1×10^6 ml^−1 was suspended in Iscove's modified Dulbecco's medium (IMDM) supplemented with 10% fetal bovine serum (Gibco, USA). The CD4^+ T cells were stimulated by antibodies of anti-CD3 (BD Bioscience, USA) and anti-CD28 (BD Bioscience, USA) and cultured at a cell incubator maintained with 5% CO2 at 37° C. The entire RNA was extracted using RNA-Bee solution (Tel-test, USA) and then reverse transcribed into cDNA through the known method as described by McIntyre et al. (Arthritis Rheum., 48(9), pp. 2652-2659, 2003). Afterwards, the level of mRNA expression was estimated by a real-time quantitative PCR with SYBR Green I (Roche, USA). Each reaction was run in triplicate using SYBR Green PCR Master Mix (Roche, USA) according to the manufacturer's protocol. […] At this time, the PCR was performed sequentially at 94° C. for 30 seconds, at 58° C. for 30 seconds, and at 72° C. for 30 seconds. This cycle of PCR was repeated 40 times.

[1] = tested on: collagen-induced arthritis; experiment: Collagen-induced arthritis (CIA), therapeutic dosing model; assay type: in vivo, mice; conditions: 20 mg/kg i.p. daily for 3 weeks after arthritis induced (after day 63); within 1 week of therapeutic administration
Procedure: (§1) As introduced in an article by Luross and Williams (Immunology, 103(4), pp. 407-416, 2001), a mice model with collagen-induced arthritis (CIA) was used to check whether compounds with a DP or HHDP structure had immune regulatory effects on the chronic inflammation or autoimmune diseases. Male DBA/1J mice, which were 7 to 9 weeks old (SLC Co., Japan), received a subcutaneous injection at the base of tails with approximately 200 μg of bovine type II collagen (CII) in complete Freund's adjuvant (CFA) on days 0 and 21 to induce systemic autoimmune arthritis. […]
For the therapeutic doing model, another experiment was performed separately from the above experiment for the prophylactic dosing model. […] During 3 weeks of the treatment period, a degree of arthritis of the mice was measured for every interval of 3 to 4 days. […] Each of the experimental data was expressed as average±standard error with a P* value of less than 0.05.
(§2) The daily observed arthritis degree of mice was scored for each paw as follows: 0=normal, 1=slight erythema and edema, 2=increased edema with loss of landmarks, 3=severe edema, and 4=severe edema with ankylosis on flexion. […] Each group was then assigned an arthritic score expressed as a mean articular index.

ovalbumin-induced asthma = experiment: Ovalbumin-induced asthma (OIA), blood IgE level; assay type: in vivo; conditions: 20 mg/kg i.p. daily for two weeks; Balb/c mice
Procedure: The immune regulation effects by compounds with a DP structure, preferably a HHDP structure, were estimated through a mice model with ovalbumin-induced asthma (OIA).
Balb/c mice (Samtaco, Korea) received an intraperitoneal injection of ovalbumin on days 0 and 14, and a solution of 1% ovalbumin was sprayed daily for 20 minutes on days 30, 32 and 34. 20 mg/kg of chebulagic acid was daily injected intraperitoneally for two weeks and bloods were taken to estimate the IgE level to check whether chebulagic acid had efficacy for the mice with the hypersensitive inflammatory disease.

[2] = tested on: collagen-induced arthritis; experiment: Collagen-induced arthritis (CIA), prophylactic dosing model; assay type: in vivo; conditions: 10 mg/kg and 20 mg/kg i.p. daily for 3 weeks (day 22 to day 42); DBA/1J mice
Procedure: as §1
For the prophylactic dosing model, the control group and the treatment groups respectively received an intraperitoneal injection of saline solution and 10 mg/kg and 20 mg/kg of chebulagic acid daily for 3 weeks (from day 22 to day 42). A degree of arthritis of the mice was measured for every interval of 3 to 4 days from day 22 to day 63. […] Each of the experimental data was expressed as average±standard error with a P* value of less than 0.05.
as §2

skin allograft = experiment: Skin allograft between allogenic mice; assay type: in vivo; conditions: 20 mg/kg i.p. daily; Balb/c skin grafted to C57B1/6 mouse
Procedure: To verify that compounds with a DP or HHDP structure are capable of suppressing a transplantation rejection response or a graft-versus-host disease directly in vivo, a skin graft was performed between allogenic mice and then chebulagic acid was treated to estimate the level of suppression against the tissue transplantation (Schwoebel et al., Lab Anim., 39(2), pp. 209-214, 2005).
Skin tissues including the derma (e.g., approximately 1 cm×approximately 1 cm) from the back of a Balb/c mouse (Samtaco, Korea) and a C57B1/6 mouse (Samtaco, Korea) were isolated while being anesthetized. The skin tissue of the Balb/c mouse was grafted to the back of the C57B1/6 mouse. After the next day of the skin graft, the treatment group and the control group received the daily intraperitoneal injection of 20 mg/kg of chebulagic acid and saline solution, respectively. It was checked whether the grafted skin tissues in the control group and the treatment group were normal or necrotized.

[3] = tested on: allogenic human leukocytes; experiment: Mixed leukocyte reaction (MLR), 3H-TdR incorporation; assay type: cell-based; conditions: for cpm (3H-TdR incorporation, lymphocyte proliferation) as % of the control group: approximately 50 μM, 5 days incubation
Procedure: Leukocytes were separated from peripheral blood of two allogenic volunteers, and then suspended with a concentration of approximately 2×10^6 ml^−1 in IMDM supplemented with 10% fetal bovine serum (Gibco, USA). 100 μl of each cell suspension was added and mixed in the each well of 96-well cell culture plate. Afterwards, saline solution was added to a control group, while chebulagic acid or punicalagin, which was diluted with saline solution by 2-fold, was added to treatment groups. Then, the plates were incubated with 5% CO2 at 37° C. for 5 days. 20 μl (approximately 0.5 μCi) of tritiated thymidine (^3H-TdR) was added to each well and incubated for 8 hours.
After the incubation, the leukocytes at each well were adsorbed on a glass fiber filter by a cell harvester (Cambridge, USA) and dried thereafter. Using Scintillation beta counter (Packard, USA), an amount of ^3H-TdR incorporated within the cells was measured in a cpm value. This measurement indicates the level of lymphocyte proliferation, which-is illustrated in FIG. 2.
In FIG. 2, CsA represents a group with 1 μM of cyclosporin A used as a positive standard specimen. The concentration of each chebulagic acid and punicalagin was approximately 50 μM. Each of the experimental data was expressed as average±standard error with a p* value of less than 0.05.

[4] = tested on: CD4+CD25+ regulatory T cells; experiment: Regulatory T cells in inflamed synovial tissues of CIA mice (FACS, Foxp3 RT-PCR); assay type: in vivo; conditions: 20 mg/kg
Source text: A correlation between immune regulation by chebulagic acid and regulatory T cells was studied through estimation of an increase/decrease in the number of regulatory T cells in inflamed synovial tissues of the mice with collagen-induced arthritis set in specific groups in Example 3. The knee joints of the limbs with edema were isolated and the surrounding muscle, patellar ligament and patella were removed to obtain the synovial tissues. Each of the synovial tissues was cut into small pieces and incubated twice in a buffer solution at 37° C. for 30 minutes. The buffer solution includes approximately 1 μg/ml collagenase type VI (Sigma, USA), 2% fetal bovine serum (Gibco, USA) and 1 mM EDTA (Sigma, USA). The cells of the isolated synovial tissues were collected and stained with anti-CD4-FITC antibodies (BD Bioscience, USA) and anti-CD25-PE antibodies (BD Bioscience, USA) for fluorescence-activated cell sorter (FACS) analysis (BD Bioscience, USA).

[5] = synovial tissues of mice with arthritis

Structure (SMILES) | increased amount of Foxp3 expression compared with the control group (Foxp3) | arthritis progression [1] | IgE level in blood as compared with the control group OVA-Control (ovalbumin-induced asthma) | onset of collagen-induced arthritis and articular index [2] | success ratio and period of maintaining the tissue graft (skin allograft) | suppression of lymphocyte proliferation compared with cyclosporin ([3]; approximately 50 μM vs 1 μM cyclosporin A) | cpm (3H-TdR incorporation, lymphocyte proliferation) as % of the control group [3] | increase of the CD4+CD25+ T cells compared with the control group ([4]; CIA mice) | increase of the Foxp3 expression compared with the control group ([4]; CIA mice) | CD4+CD25+ T cell ratio (%) [4, 5] [%] | Foxp3 expression level [4, 5]
O=C(O)C[C@@H]1C(=O)O[C@H]2[C@@H]3OC(=O)c4cc(O)c(O)c(O)c4-c4c(cc(O)c(O)c4O)C(=O)OC[C@H]2O[C@@H](OC(=O)c2cc(O)c(O)c(O)c2)[C@@H]3OC(=O)c2cc(O)c(O)c3c2[C@H]1[C@H](O)C(=O)O3 [chebulagic acid] | approximately 375% | significant inhibition of the arthritis progression | approximately 28.5% | decreased the onset of collagen-induced arthritis and the articular index | increased the success ratio and period of maintaining the tissue graft | as effective as 1 μM cyclosporin | approximately 9.7% | approximately 100% | approximately 550% | 5.0 ± 0.4 | 3.3 ± 0.3
O=C(O[C@@H]1O[C@@H]2COC(=O)c3cc(O)c(O)c(O)c3-c3c(cc(O)c(O)c3O)C(=O)O[C@H]([C@H]1O)[C@@H]2O)c1cc(O)c(O)c(O)c1 [corilagin] | approximately 350% | – | – | – | – | – | – | – | – | – | –
O=C1OC2C(O)OC3COC(=O)c4cc(O)c(O)c(O)c4-c4c(O)c(O)c5oc(=O)c6c(c(O)c(O)c7oc(=O)c4c5c76)-c4c(cc(O)c(O)c4O)C(=O)OC3C2OC(=O)c2cc(O)c(O)c(O)c2-c2c1cc(O)c(O)c2O (centres unmarked) [punicalagin] | approximately 737% | – | – | – | – | – | approximately 34.1% | – | – | – | –
